Experiment: in vitro
Settings: human, hek293t cells

In order of rising viability at 48 h, 25 µM:
1. O=C(CCl)N1N=C(c2ccccc2)CC1c1ccccc1 (centres unmarked) [4-I20, 2-chloro-1-(3,5-diphenyl-4,5-dihydro-1H-pyrazol-1-yl)ethan-1-one]  0.141%
2. O=C(CCl)Nc1ccc(Cl)c(C(F)(F)F)c1 [4-I09, 2-chloro-N-[4-chloro-3-(trifluoromethyl)phenyl]acetamide]  0.299%
3. O=C(CCl)Nc1cc(C2CCCC2)nn1-c1ccccc1 [4-J03, 2-chloro-N-(3-cyclopentyl-1-phenyl-1H-pyrazol-5-yl)acetamide]  0.358%
4. Cc1ccc(C2CC(c3cccs3)=NN2C(=O)CCl)cc1 (centres unmarked) [4-I22, 2-chloro-1-[5-(4-methylphenyl)-3-(thiophen-2-yl)-4,5-dihydro-1H-pyrazol-1-yl]ethan-1-one]  0.369%
5. O=C(CCl)Nc1ccccc1SCc1ccccc1 [4-J05, N-[2-(benzylsulfanyl)phenyl]-2-chloroacetamide]  0.437%
6. O=C(CCl)Nc1ccc(F)cc1[N+](=O)[O-] [4-I07, 2-chloro-N-(4-fluoro-2-nitrophenyl)acetamide]  0.642%
7. O=C(CCl)N(Cc1ccc(F)cc1)C1CCCCC1 [4-I13, 2-chloro-N-cyclohexyl-N-[(4-fluorophenyl)methyl]acetamide]  0.726%
8. CCc1ccccc1NC(=O)CNC(=O)CCl [4-I08, 2-chloro-N-{[(2-ethylphenyl)carbamoyl]methyl}acetamide]  0.8%
9. O=C(CCl)NCC1(c2ccc3c(c2)OCCO3)CCCC1 [4-I11, 2-chloro-N-{[1-(2,3-dihydro-1,4-benzodioxin-6-yl)cyclopentyl]methyl}acetamide]  0.867%
10. O=C(CCl)Nc1ccccc1C(=O)c1ccccc1 [4-J06, N-(2-benzoylphenyl)-2-chloroacetamide]  1.12%
11. O=C(CCl)Nc1cc(C(F)(F)F)ccc1Cl [4-J04, 2-chloro-N-[2-chloro-5-(trifluoromethyl)phenyl]acetamide]  1.3%
12. CCN(CC(=O)NC1CCS(=O)(=O)C1)C(=O)CCl (centres unmarked) [4-I19, 2-chloro-N-{[(1,1-dioxo-1lambda6-thiolan-3-yl)carbamoyl]methyl}-N-ethylacetamide]  1.33%
13. O=C(CCl)Nc1cc(C2CC2)nn1-c1ccccc1 [4-I15, 2-chloro-N-(3-cyclopropyl-1-phenyl-1H-pyrazol-5-yl)acetamide]  1.44%
14. CC(C)c1ccc(C(C)NC(=O)CCl)cc1 (centres unmarked) [4-I05, 2-chloro-N-{1-[4-(propan-2-yl)phenyl]ethyl}acetamide]  1.47%
15. CNC(=O)CC(NC(=O)CCl)c1ccc(F)cc1F (centres unmarked) [4-I16, 3-(2-chloroacetamido)-3-(2,4-difluorophenyl)-N-methylpropanamide]  18.5%
16. COc1ccc(NC(=O)CCl)c([N+](=O)[O-])c1 [4-I21, 2-chloro-N-(4-methoxy-2-nitrophenyl)acetamide]  35.6%
17. O=C(CCl)NC(=O)Nc1ccccc1 [4-I17, 3-(2-chloroacetyl)-1-phenylurea]  64%
18. Cc1ccc(S(=O)(=O)N(C)C)cc1NC(=O)C(C)Cl (centres unmarked) [4-I06, 2-chloro-N-[5-(dimethylsulfamoyl)-2-methylphenyl]propanamide]  69.7%
19. CC(Cl)C(=O)Nc1cc2c(cc1Cl)C(=O)c1ccccc1C2=O (centres unmarked) [4-I12, 2-chloro-N-(3-chloro-9,10-dioxo-9,10-dihydroanthracen-2-yl)propanamide]  79.4%
20. COc1cc(NC(=O)C(C)Cl)cc(OC)c1 (centres unmarked) [4-I04, 2-chloro-N-(3,5-dimethoxyphenyl)propanamide]  81.7%
21. CC(Cl)C(=O)Nc1ccc([N+](=O)[O-])cc1 (centres unmarked) [4-I18, 2-chloro-N-(4-nitrophenyl)propanamide]  86.7%
22. COc1ccc(NC(=O)C(C)Cl)cc1Cl (centres unmarked) [4-I14, 2-chloro-N-(3-chloro-4-methoxyphenyl)propanamide]  90.7%
23. CC(Cl)C(=O)NCC1CCCCC1 (centres unmarked) [4-I10, 2-chloro-N-(cyclohexylmethyl)propanamide]  90.9%

Source: publication PMC11995724, “Antibiotic target discovery by integrated phenotypic and activity-based profiling of electrophilic fragments” (Cell chemical biology, 2025)
